Measurements: patent publication US20170311608A1, “BACILLUS THURINGIENSIS SUBSP. AIZAWAI AND CYANTRANILIPROLE MIXTURES FOR DIAMONDBACK MOTH, CABBAGE LOOPER, BEET ARMYWORM, SOYBEAN LOOPER, CORN EARWORM, SOUTHWESTERN CORN BORER AND SUGARCANE BORER CONTROL” (priority 2016, published 2017)
Read-outs that look alike come from different tables or passages of the source.

Tests used:
diamondback moth larvae = test: Leaf dip test, diamondback moth larvae; assay type: in vivo; details: Plutella xylostella, foliar, Bta 2.7 ppm, cyantraniliprole 0.1 ppm, mixture 2.7 ppm + 0.1 ppm, read-out: % Efficacy
Description: The following examples illustrate the effectiveness of Bacillus thuringiensis subsp. aizawai and cyantraniliprole when controlling diamondback moth, cabbage looper, beet armyworm, soybean looper, corn earworm, southwestern corn borer and sugarcane borer. Xentari® was used as the source of Bacillus thuringiensis subsp. aizawai and Exirel® was used as the source of cyantraniliprole. The present invention is not limited to the products or formulation types used herein. In each example below, the studies were conducted as follows.
For these tests, standardized laboratory leaf dip methods were used to inoculate plant material with treatment(s). […] Synergy ratings were calculated for each test. […]
% Cexp=A+B−(AB/100), where % Cexp is the expected efficacy and “in which A and B are the control levels given by the single [insecticides]. […] Adopting a conservative approach, Applicant determined synergy to be present at ratios of >1.15. […]
In order to determine synergy, rates below normal field rate ranges must be used. If normal field rate ranges are used, all of the larvae would die (combining a lethal or near lethal dose of Bacillus thuringiensis subsp. aizawai with a lethal dose of cyantraniliprole would most likely lead to larvae death) in every treatment and synergy would not be able to be determined. […]

beet armyworm larvae = test: Leaf dip test, beet armyworm larvae; assay type: in vivo; details: Spodoptera exigua, foliar, Bta 2.7 ppm, cyantraniliprole 1.0 ppm, mixture 2.7 ppm + 1.0 ppm, read-out: % Efficacy
Description: (§1) The present invention is not limited to the products or formulation types used herein. In each example below, the studies were conducted as follows.
(§2) For these tests, standardized laboratory leaf dip methods were used to inoculate plant material with treatment(s). Dry, treated leaves were placed into Petri dishes (100×25 mm) containing filter paper wetted with 500 μl of distilled H2O (“dH2O”). Each dish was then infested with between 5 and 10 larvae, dependent on species. Efficacy ratings were taken at specified intervals. Synergy ratings were calculated for each test.
(§3) % Cexp=A+B−(AB/100), where % Cexp is the expected efficacy and “in which A and B are the control levels given by the single [insecticides]. […] Adopting a conservative approach, Applicant determined synergy to be present at ratios of >1.15.

cabbage looper larvae = test: Leaf dip test, cabbage looper larvae; assay type: in vivo; details: Trichoplusia ni, foliar, Bta 2.7 ppm, cyantraniliprole 0.50 ppm, mixture 2.7 ppm + 0.50 ppm, read-out: % Efficacy
Description: as §1, §2, §3

sugarcane borer larvae = test: Leaf dip test, sugarcane borer larvae; assay type: in vivo; details: Diatraea saccharalis, foliar, Bta 2.7 ppm, cyantraniliprole 1.0 ppm, mixture 2.7 ppm + 1.0 ppm, read-out: % Efficacy
Description: as §1, §2, §3

[1] = tested on: southwestern corn borer larvae; test: Leaf dip test, southwestern corn borer larvae; assay type: in vivo, Diatraea grandiosella; details: foliar, Bta 2.7 ppm, cyantraniliprole 0.1 ppm, mixture 2.7 ppm + 0.1 ppm, read-out: % Efficacy
Description: as §1, §2, §3

soybean looper larvae = test: Leaf dip test, soybean looper larvae; assay type: in vivo, Chrysodeixis includens; details: foliar, Bta 27 ppm, cyantraniliprole 1.0 ppm, mixture 27 ppm + 1.0 ppm, read-out: % Efficacy
Description: as §1, §2, §3

corn earworm larvae = test: Leaf dip test, corn earworm larvae; assay type: in vivo; details: Helicoverpa zea, foliar, Bta 27 ppm, cyantraniliprole 10.0 ppm, mixture 27 ppm + 10.0 ppm, read-out: % Efficacy
Description: as §1, §2, §3

## CNC(=O)c1cc(C#N)cc(C)c1NC(=O)c1cc(Br)nn1-c1ncccc1Cl [Cyantraniliprole, 3-Bromo-1-(3-chloro-2-pyridinyl)-N-[4-cyano-2-methyl-6-(methylcarbamoyl)phenyl]-1H-pyrazole-5-carboxamide]
Diamondback moth larvae; 24 h after treatment
  Emax at 0.1 ppm: 34%
Diamondback moth larvae; 48 h after treatment
  Emax at 0.1 ppm: 60%
Beet armyworm larvae; 24 h after treatment
  Emax at 1 ppm: 22%
Beet armyworm larvae; 48 h after treatment
  Emax at 1 ppm: 36%
Cabbage looper larvae; 24 h after treatment
  Emax at 0.5 ppm: 18%
Cabbage looper larvae; 48 h after treatment
  Emax at 0.5 ppm: 38%
Sugarcane borer larvae; 24 h after treatment
  Emax at 1 ppm: 42%
Sugarcane borer larvae; 48 h after treatment
  Emax at 1 ppm: 42%
[1]; 24 h after treatment
  Emax at 0.1 ppm: 17%
[1]; 48 h after treatment
  Emax at 0.1 ppm: 24%
Soybean looper larvae; 24 h after treatment
  Emax at 1 ppm: 4%
Soybean looper larvae; 48 h after treatment
  Emax at 1 ppm: 25%
Corn earworm larvae; 24 h after treatment
  Emax at 10 ppm: 49%
Corn earworm larvae; 48 h after treatment
  Emax at 10 ppm: 51%
